Laboratory results as given in US20250206732A1, “COMPOUNDS AND METHODS FOR THE TARGETED DEGRADATION OF KRAS” (Arvinas Operations, Inc., priority 2022, published 2025).
One block for each compound: values may come before it.

Tests used:
AsPC-1 HiBiT-KRASG12D = target: T1, AsPC-1 HiBiT-KRASG12D (Homo sapiens, UniProt P01116, G12D); assay: HiBiT degradation assay (G12D), AsPC-1 HiBiT-KRASG12D cells; type: cell-based; conditions: 24 hours treatment; for Dmax: ASPC1, AsPC-1 HiBiT-KRASG12D cells, maximum degradation observed; for DC50: AsPC-1 HiBiT-KRASG12D cells, HiBiT luminescence
T1 construct: insert the HiBiT tag onto the N-terminus of one or more of the endogenous KRAS alleles; endogenous in cells; host or cells: AsPC-1 (ATCC CRL-1682), CRISPR-Cas9 knock-in clone, one tagged allele
T1 sequence (P01116 1-188 isoform P01116-2 G12D): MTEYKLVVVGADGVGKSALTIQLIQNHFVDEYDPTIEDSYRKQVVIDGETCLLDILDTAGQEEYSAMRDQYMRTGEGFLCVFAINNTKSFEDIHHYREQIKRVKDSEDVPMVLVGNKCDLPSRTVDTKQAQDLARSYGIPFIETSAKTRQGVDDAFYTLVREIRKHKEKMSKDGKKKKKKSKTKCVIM
Procedure, shortened: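 24 h cmpd treatment, 37° C/5% CO2, AsPC-1 HiBiT-KRASG12D clone (CRISPR N-term tag). Alamar blue 1×, 4 h, fluorescence. PBS wash, Nano-Glo HiBiT lytic reagent, 45 min RT, luminescence. Triplicates.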

SW1573 HiBiT-KRASG12C = target: T2, SW1573 HiBiT-KRASG12C (Homo sapiens, UniProt P01116, G12C); assay: HiBiT degradation assay (G12C), SW1573 HiBiT-KRASG12C cells; type: cell-based; conditions: 24 hours treatment; for Dmax: maximum degradation observed;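 for SW1573 HiBiT-KRASG12C DC50 (nM): Letter grades: C is 1000 to 3000 nM and D is above 3000 nM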
T2 construct: expressed in transfected cells
T2 sequence (P01116 1-188 isoform P01116-2 G12C): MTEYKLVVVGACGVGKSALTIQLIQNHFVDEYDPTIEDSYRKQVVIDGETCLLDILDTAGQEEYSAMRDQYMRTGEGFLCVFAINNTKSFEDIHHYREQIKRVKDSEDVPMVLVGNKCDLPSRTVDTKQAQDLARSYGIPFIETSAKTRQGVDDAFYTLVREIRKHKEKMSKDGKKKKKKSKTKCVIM
Protocol: Reagents. SW1573 (CRL-2170), AsPC-1 (CRL-1682), and SW620 (CCL-227) cells were purchased from ATCC. SW1573 cells are homozygous for the G12C mutation in KRAS, AsPC-1 cells are homozygous for the G12D mutation, and SW620 cells are homozygous for the G12V mutation. SW1573 cells were cultured in DMEM+F12+Glutamax (+Sodium Bicarbonate, +sodium pyruvate, ThermoFisher scientific, #10565) supplemented with 10% FBS (ThermoFisher scientific, #2060357) and 1% Antibiotic-Antimycotic (ThermoFisher scientific, #15240096). AsPC-1 cells were cultured in GIBCO RPMI-1640 (ThermoFisher scientific, catalog #61870-036 with Glutamax, No HEPES, No Na Pyruvate) supplemented with 10% FBS (ThermoFisher scientific, catalog #2060357) and 1× Penicillin-Streptomycin (ThermoFisher scientific, catalog #15140122, 10000 U/ml, 100×). SW620 cells were cultured in DMEM Glutamax (ThermoFisher scientific, catalog #10566016) supplemented with 10% FBS (ThermoFisher scientific, catalog #2060357) and 1× Penicillin-Streptomycin (ThermoFisher scientific, catalog #15140122, 10000 U/ml, 100×). For degradation assays, 384 well plates were used. Alamar blue was purchased from ThermoFisher scientific (A50101) and used according to manufacturer instructions. The Nano-Glo® HiBiT Lytic Detection System and Nano-Glo® HiBiT Blotting System were purchased from Promega (#N3050 and #N2410) and used according to manufacturer instructions.
HiBiT-tagged cell line generation. To create the SW1573 HiBiT-KRASG12C cell line, the nucleotide sequence encoding the 11 amino acid HiBiT tag from Promegal was appended to the N-terminus of the KRASG12C coding sequence. This synthesized DNA was cloned into a modified pcDNA3.1 vector under the control of the thymidine kinase (TK) promoter. This HiBiT-KRASG12C expressing plasmid was transfected into parental SW1573 cells and colonies were selected using 400 μg/mL zeocin. The resulting clonal lines were screened for expression of HiBiT-KRASG12C protein using Nano-Glo® HiBiT Blotting System. A luminescent band of the correct size for HiBiT-KRASG12C was detected in several clones. Clone E6 was selected for further studies.
HiBiT degradation assays (G12C and G12D). Either SW1573 HiBiT-KRasG12C or AsPC-1 HiBiT-KRasG12D cells were plated at 9000 or 15,000 cells/well in a 384 well plate (Corning #3770). Compounds of the present disclosure and positive controls were diluted in the appropriate cell media and applied to the plated cells resulting in a final concentration titration of 10 μM to 508 pM in 0.5% DMSO. Gambogic acid was used as a positive control for cytotoxicity and titrated from 10 μM to 78 nM. All assays were performed in triplicate. Cells were treated with compounds for 24 hours at 37° C. in an incubator containing 5% CO2. Following treatment, alamar blue was used to determine if any compounds led to a loss in cell viability after 24 hours. The 10× alamar blue reagent was added to a final concentration of 1× as recommended by the manufacturer and cells were returned to the incubator for 4 hours. Plates were then allowed to equilibrate to room temperature and fluorescence was measured using a Perkin-Elmer EnVision. After completion of the fluorescence read, the liquid from each well was removed and the cells were washed with PBS. The Nano-Glo® HiBiT detection reagent was prepared according to the manufacturer's instructions and added to each well after the PBS wash was removed. Following incubation at room temperature for 45 minutes, the luminescence was read using the ultra-sensitive luminescence aperture on the Envision instrument.
Data analysis. Fluorescence values from the alamar blue treatment were normalized to the DMSO-only control for each compound titration. […]

SMILES: CCc1cccc2cc(O)cc(-c3ncc4c(N5CC6CCC(C5)N6)nc(OCCN5CCC(COCC(=O)N[C@H](C(=O)N6C[C@H](O)C[C@H]6C(=O)N[C@@H](C)c6ccc(-c7scnc7C)cc6)C(C)(C)C)CC5)nc4c3F)c12 [Compound 21, (2S,4R)-1-[(2S)-2-[[2-[[1-[2-[4-(3,8-diazabicyclo[3.2.1]octan-3-yl)-7-(8-ethyl-3-hydroxy-1-naphthyl)-8-fluoro-pyrido[4,3-d]pyrimidin-2-yl]oxyethyl]-4-piperidyl]methoxy]acetyl]amino]-3,3-dimethyl-butanoyl]-4-hydroxy-N-[(1S)-1-[4-(4-methylthiazol-5-yl)phenyl]ethyl]pyrrolidine-2-carboxamide]
- Dmax (AsPC-1 HiBiT-KRASG12D): 80 to 100%
- DC50 (AsPC-1 HiBiT-KRASG12D): < 600 nM
- DC50 (SW1573 HiBiT-KRASG12C; HiBiT luminescence): > 3000 nM

SMILES: CCc1cccc2cc(O)cc(-c3ncc4c(N5CC6CCC(C5)N6)nc(OCCN5CCC(COC6(C(=O)N[C@H](C(=O)N7C[C@H](O)C[C@H]7C(=O)N[C@@H](C)c7ccc(-c8scnc8C)cc7)C(C)(C)C)CC6)CC5)nc4c3F)c12 [Compound 9, (2S,4R)-1-[(2S)-2-[[1-[[1-[2-[4-(3,8-diazabicyclo[3.2.1]octan-3-yl)-7-(8-ethyl-3-hydroxy-1-naphthyl)-8-fluoro-pyrido[4,3-d]pyrimidin-2-yl]oxyethyl]-4-piperidyl]methoxy]cyclopropanecarbonyl]amino]-3,3-dimethyl-butanoyl]-4-hydroxy-N-[(1S)-1-[4-(4-methylthiazol-5-yl)phenyl]ethyl]pyrrolidine-2-carboxamide]
- Dmax (AsPC-1 HiBiT-KRASG12D): 80 to 100%
- DC50 (AsPC-1 HiBiT-KRASG12D): < 600 nM
- DC50 (SW1573 HiBiT-KRASG12C; HiBiT luminescence): > 3000 nM

- DC50 (AsPC-1 HiBiT-KRASG12D): > 3000 nM
- DC50 (SW1573 HiBiT-KRASG12C; HiBiT luminescence): > 3000 nM
SMILES: CCc1cccc2cc(O)cc(-c3ncc4c(N5CCCCCC5)nc(OC[C@]56CCCN5[C@@H](COC(=O)N5CCN(c7cc([C@@H](C(=O)N8C[C@H](O)C[C@H]8C(=O)N[C@@H](C)c8ccc(-c9scnc9C)cc8)C(C)C)on7)CC5)CC6)nc4c3F)c12 [Compound 46, [(3R,7aR)-7a-({[4-(azepan-1-yl)-7-(8-ethyl-3-hydroxynaphthalen-1-yl)-8-fluoropyrido[4,3-d]pyrimidin-2-yl]oxy}methyl)-hexahydro-1H-pyrrolizin-3-yl]methyl 4-{5-[(2S)-1-[(2S,4R)-4-hydroxy-2-{[(1S)-1-[4-(4-methyl-1,3-thiazol-5-yl)phenyl]ethyl]carbamoyl}pyrrolidin-1-yl]-3-methyl-1-oxobutan-2-yl]-1,2-oxazol-3-yl}piperazine-1-carboxylate]

SMILES: CCc1cccc2cc(O)cc(-c3ncc4c(N5CC6CCC(C5)N6)nc(OCCN5CCC(OCC(=O)N[C@H](C(=O)N6C[C@H](O)C[C@H]6C(=O)N[C@@H](C)c6ccc(-c7scnc7C)cc6)C(C)(C)C)CC5)nc4c3F)c12 [Compound 12, (2S,4R)-1-[(2S)-2-[[2-[[1-[2-[4-(3,8-diazabicyclo[3.2.1]octan-3-yl)-7-(8-ethyl-3-hydroxy-1-naphthyl)-8-fluoro-pyrido[4,3-d]pyrimidin-2-yl]oxyethyl]-4-piperidyl]oxy]acetyl]amino]-3,3-dimethyl-butanoyl]-4-hydroxy-N-[(1S)-1-[4-(4-methylthiazol-5-yl)phenyl]ethyl]pyrrolidine-2-carboxamide]
- Dmax (AsPC-1 HiBiT-KRASG12D): 80 to 100%
- DC50 (AsPC-1 HiBiT-KRASG12D): 1000 to 3000 nM
- DC50 (SW1573 HiBiT-KRASG12C; HiBiT luminescence): > 3000 nM

SMILES: Cc1ncsc1-c1ccc([C@H](C)NC(=O)[C@@H]2C[C@@H](O)CN2C(=O)[C@@H](c2cc(OCC3CCN(CCOc4nc(N5CC6CCC(C5)N6)c5cnc(-c6cc(O)cc(Cl)c6C6CC6)c(F)c5n4)CC3)no2)C(C)C)cc1 [Compound 43, (2S,4R)-1-[(2R)-2-(3-{[1-(2-{[7-(3-chloro-2-cyclopropyl-5-hydroxyphenyl)-4-{3,8-diazabicyclo[3.2.1]octan-3-yl}-8-fluoropyrido[4,3-d]pyrimidin-2-yl]oxy}ethyl)piperidin-4-yl]methoxy}-1,2-oxazol-5-yl)-3-methylbutanoyl]-4-hydroxy-N-[(1S)-1-[4-(4-methyl-1,3-thiazol-5-yl)phenyl]ethyl]pyrrolidine-2-carboxamide]
- Dmax (AsPC-1 HiBiT-KRASG12D): 80 to 100%
- DC50 (AsPC-1 HiBiT-KRASG12D): < 600 nM
- DC50 (SW1573 HiBiT-KRASG12C; HiBiT luminescence): > 3000 nM
- Dmax (SW1573 HiBiT-KRASG12C): 20 to 60%

- DC50 (AsPC-1 HiBiT-KRASG12D): > 3000 nM
- DC50 (SW1573 HiBiT-KRASG12C; HiBiT luminescence): 1000 to 3000 nM
- Dmax (SW1573 HiBiT-KRASG12C): 20 to 60%
SMILES: CCc1cccc2cc(O)cc(-c3ncc4c(N5CC6CCC(C6)C5)nc(OCCN5CCC(COCC(=O)N[C@H](C(=O)N6C[C@H](O)C[C@H]6C(=O)N[C@@H](C)c6ccc(-c7scnc7C)cc6)C(C)(C)C)CC5)nc4c3F)c12 [Compound 19, (2S,4R)-1-[(2S)-2-[[2-[[1-[2-[4-(3-azabicyclo[3.2.1]octan-3-yl)-7-(8-ethyl-3-hydroxy-1-naphthyl)-8-fluoro-pyrido[4,3-d]pyrimidin-2-yl]oxyethyl]-4-piperidyl]methoxy]acetyl]amino]-3,3-dimethyl-butanoyl]-4-hydroxy-N-[(1S)-1-[4-(4-methylthiazol-5-yl)phenyl]ethyl]pyrrolidine-2-carboxamide]

SMILES: CCc1cccc2cc(O)cc(-c3ncc4c(N5CC6CCC(C5)N6)nc(OC[C@@]56CCCN5[C@H](COC(=O)N5CCN(c7cc([C@H](C(=O)N8C[C@H](O)C[C@H]8C(=O)N[C@@H](C)c8ccc(-c9scnc9C)cc8)C(C)C)on7)CC5)CC6)nc4c3F)c12 [Compound 5]
- Dmax (AsPC-1 HiBiT-KRASG12D): 80 to 100%
- DC50 (AsPC-1 HiBiT-KRASG12D): < 600 nM
- DC50 (SW1573 HiBiT-KRASG12C; HiBiT luminescence): ≤ 600 nM
- Dmax (SW1573 HiBiT-KRASG12C): 60 to 80%

SMILES: CCc1cccc2cccc(-c3ncc4c(N5CC6CCC(C5)N6)nc(OC[C@]56CCCN5[C@@H](COC(=O)N5CCN(c7cc([C@H](C(=O)N8C[C@H](O)C[C@H]8C(=O)N[C@@H](C)c8ccc(-c9scnc9C)cc8)C(C)C)on7)CC5)CC6)nc4c3F)c12 [Compound 34, [(3R,7aR)-7a-{[(4-{3,8-diazabicyclo[3.2.1]octan-3-yl}-7-(8-ethylnaphthalen-1-yl)-8-fluoropyrido[4,3-d]pyrimidin-2-yl)oxy]methyl}-hexahydro-1H-pyrrolizin-3-yl]methyl 4-{5-[(2R)-1-[(2S,4R)-4-hydroxy-2-{[(1S)-1-[4-(4-methyl-1,3-thiazol-5-yl)phenyl]ethyl]carbamoyl}pyrrolidin-1-yl]-3-methyl-1-oxobutan-2-yl]-1,2-oxazol-3-yl}piperazine-1-carboxylate]
- Dmax (AsPC-1 HiBiT-KRASG12D): 80 to 100%
- DC50 (AsPC-1 HiBiT-KRASG12D): < 600 nM
- DC50 (SW1573 HiBiT-KRASG12C; HiBiT luminescence): > 3000 nM

SMILES: Cc1ncsc1-c1ccc([C@H](C)NC(=O)[C@@H]2C[C@@H](O)CN2C(=O)[C@@H](c2cc(OCC3CCN(CCOc4nc(N5CC6CCC(C5)N6)c5cnc(-c6cc(O)cc7ccccc67)c(F)c5n4)CC3)no2)C(C)C)cc1 [Compound 22, (2S,4R)-1-[(2R)-2-[3-[[1-[2-[4-(3,8-diazabicyclo[3.2.1]octan-3-yl)-8-fluoro-7-(3-hydroxy-1-naphthyl)pyrido[4,3-d]pyrimidin-2-yl]oxyethyl]-4-piperidyl]methoxy]isoxazol-5-yl]-3-methyl-butanoyl]-4-hydroxy-N-[(1S)-1-[4-(4-methylthiazol-5-yl)phenyl]ethyl]pyrrolidine-2-carboxamide]
- Dmax (AsPC-1 HiBiT-KRASG12D): 20 to 60%
- DC50 (AsPC-1 HiBiT-KRASG12D): 600 to 1000 nM
- SW1573 HiBiT-KRASG12C DC50 (nM) (SW1573 HiBiT-KRASG12C; HiBiT luminescence): C/D*
